Literature values, collected in patent US11134680B2, “Disinfectant having organic acids” (Bode Chemie GmbH, priority 2015, dated 2021).
One block for each compound: values may come before it.

Key:
Staphylococcus aureus = settings: exposure time of 72 hours
[1] = at 20° C.
C. albicans = settings: 72 hours

minimum inhibitory concentration (MIC) (Staphylococcus aureus): 9%
SMILES: CC(=O)O [acetic acid]

pKa [1]: 3.87
SMILES: CC(O)C(=O)O (centres unmarked) [lactic acid]
reduction factor (Staphylococcus aureus; concentration of 0.3%): > 5 log

SMILES: O=C([O-])c1ccccc1.[Na+] [sodium benzoate]
MMC (C. albicans; >5 log): 1200 µg/mL
reduction (microbicidal action) (C. albicans; application solution of 0.12%): > 5 log
